Data as given in US9745337B2, “Complex compounds of germanium, methods for producing same, and drugs” (priority 2012, dated 2017).
In brackets after ≈: the same amount, converted by molar mass. Where two headings read alike, the source gives them in different places.

Tests used:
HSV-1 [1] = details: combination of D609 and acyclovir; cited from earlier work
[2] = system: herpes simplex virus (HSV-1); details: cited from earlier work
Varicella-Zoster virus = details: S-acetyl glutathione 0.35 mg/mL with three acyclovir concentrations, strongest at 0.9 mcg/mL acyclovir; cited from earlier work
HSV-1 [3] = details: Vero cells, cited from earlier work
[4] = in vivo; cited from earlier work
[5] = biopharmaceutical and biorelevant solubility (pH media, FaSSIF, FeSSIF)
Protocol: (§1) For this purpose, we studied the solubilities of these compounds at various pH values that correspond to the gastrointestinal fluids (for the intestinal fluid: pH is 1.2; for the duodenal fluid: pH 4.4; and for the small intestine fluid: pH 6.8).
(§2) One biopharmaceutical solubility value which allows describing a therapeutic drug (TD) as a compound having “high” or “low” solubility, is the dose/solubility ratio (D/S). The dose/solubility ratio is determined as follows: maximal dose (D) (mg)/water solubility (S) (mg/mL).
(§3) Importantly, biopharmaceutical solubility is not a constant value for a given therapeutic drug (TD); rather, it depends on the maximal registered dosage of an immediate-release TD intended for systemic effects.
(§4) One more biopharmaceutical value is the solubility in biorelevant media. These are dissolution media such that approach the human body fluids (intestinal fluid and gastric fluid) as closely as possible in terms of chemical composition and in terms of physicochemical properties (pH, osmomolality, buffer capacity, and surface tension). The simulation of physiological conditions is provided by introducing surfactants (lecithin and sodium taurocholate) into these media. There are two major types of biorelevant media, namely: an artificial intestinal fluid in an empty stomach (fasted state simulated intestinal fluid (FaSSIF)) and after eating (fed state simulated intestinal fluid (FeSSIF)).

[6] = system: herpes simplex viruses type 1 (HSV-1); details: cited from earlier work
[7] = in the presence of low, inefficient concentrations of xanthogenate; cited from earlier work
[8] = cited from earlier work
HSV-2 = details: Vero cells, cited from earlier work
[9] = octanol-water partition coefficient log P; format: physicochemical; details: n-octanol and water
From the text: A criterion that can serve as a measure of the absorption of the solute through the wall of the small intestine is permeability, i.e., the fraction of the substance permeating through the intestinal wall. The physicochemical property of a molecule that makes the greatest contribution to permeability is liphophilicity. A measure of lipophilicity to be used in indirect assessment of intestinal permeability is the octanol-water partition coefficient, log P, which is the logarithm of the ratio of concentrations of an unionized substance in the system of two immiscible liquids (n-octanol and water). […]

[10] = reference for high intestinal permeability; cited from earlier work
HSV-1 “L2/R” virus = format: cell-based, herpes simplex virus type I; details: concentrations of 500 mcg/mL and 250 mcg/mL, VERO
Protocol: The criteria used to evaluate the antiviral activity were: the ability to prevent the development of a virus-induced cytopathic effect and the ability to inhibit reproduction of the virus in the cell culture. Test samples were inserted into the nutrient medium 1 hour after the culture was infected with a certain dose of the virus (the therapeutic scheme). The antiviral activity of the samples and virus-induced cytopathic effects in the cell culture were monitored every day using light microscopy as the degree of morphological alteration of a cell monolayer. The endpoint was on the 4th day of contact of the cells with the infectious material, after a well-defined (100%) cytopathic effect appeared in control samples (positive control). The presence of antiviral activity in samples of organogermanium compounds according to the invention was ascertained as the difference between the viral titers measured in the experiment and in the control.

Protocol for physchem: as §1, §2, §3, §4

S=C(S)OC1CC2CC1C1CCCC21 (centres unmarked) [D609, tricyclodecan-9-yl-xanthogenate]
survival of animals infected with HSV-1 (HSV-1 [1]): survival of all animals

CC(=O)SC[C@H](NC(=O)CC[C@H](N)C(=O)O)C(=O)NCC(=O)O [S-acetyl glutathione]
effect of combination with acyclovir against HSV-1 ([2]; S-acetyl glutathione combined with acyclovir): strong synergistic effect
concentration from which efficient against HSV-1 [2]: ≥ 0.35 mg/mL
effect of compositions with acyclovir against Varicella-Zoster virus (Varicella-Zoster virus): noticeable synergistic effect

Nc1nc2c(ncn2COCCO)c(=O)[nH]1 [acyclovir, 9-[(2-hydroxyethoxy)methyl] guanine]
effect of combination against HSV-1 (HSV-1 [3]; acyclovir 0.04-0.4 mcg/mL with carbocyclic oxetanocin G 0.01-0.2 mcg/mL): synergistic effect
effect of combination against HSV-1 (HSV-1 [3]; acyclovir 0.04-0.4 mcg/mL with oxetanocin G 0.4-5.4 mcg/mL): synergistic effect
bioavailability [4]: 15-20%
Solubility (“high”/“low”) ([5]; FaSSIF): “low”
Solubility (“high”/“low”) ([5]; FeSSIF): “low”
Solubility (“high”/“low”) ([5]; pH 1.2): “high” (When D/S≦250 mL, the TD has “high” solubility in the relevant aqueous solution)
Solubility (“high”/“low”) ([5]; pH 4.4-4.5 (4.4 for the tested compounds, 4.5 for acyclovir)): low and “low”
Solubility (“high”/“low”) ([5]; pH 6.8): low and “low”
solubility ([5]; pH 6.8): 2400 µg/mL (≈ 10.7 mM)
concentration for 50% inhibition of the virus-induced cytopathic effect ([6]; acyclovir used alone): 0.4 µg/mL
acyclovir concentration for 50% inhibition of the virus-induced cytopathic effect ([6]; combined with bis-netropsin 0.15 mcg/mL): 0.15 µg/mL
acyclovir concentration for 50% inhibition of the virus-induced cytopathic effect ([6]; combined with netropsin 2.5 mcg/mL): 0.075 µg/mL
solubility (physchem; FaSSIF (fasted state simulated intestinal fluid), fassif): 1440 µg/mL (≈ 6.39 mM)
solubility (physchem; FeSSIF (fed state simulated intestinal fluid), fessif): 1380 µg/mL (≈ 6.13 mM)
solubility (physchem; aqueous dissolution medium at pH 1.2, pH 1.2, simulated gastric fluid): 3500 µg/mL (≈ 15.5 mM)
solubility (physchem; aqueous dissolution medium at pH 4.5, pH 4.4, aqueous buffer): 2600 µg/mL (≈ 11.5 mM)
increase of acyclovir activity in a cell culture [7]: fivefold
solubility in hydrophobic systems [8]: almost insoluble
effect of combination against HSV-2 (HSV-2; acyclovir 0.1-3.4 mcg/mL with carbocyclic oxetanocin G 0.04-0.54 mcg/mL): synergistic effect
effect of combination against HSV-2 (HSV-2; acyclovir 0.1-3.4 mcg/mL with oxetanocin G 0.4-4 mcg/mL): synergistic effect
logP [9]: -1.57

Nc1nc2c(ncn2COC(CO)CO)c(=O)[nH]1 [gancyclovir, 9-[(1,3-dihydroxy-2-propoxy)methyl]guanine]
bioavailability [4]: 5%
reduction in gancyclovir concentration ([6]; combination with netropsin and bis-netropsin): fivefold

COCCc1ccc(OCC(O)CNC(C)C)cc1 (centres unmarked) [metoprolol]
log P of reference substance [10]: 1.72

Nc1nc2c(ncn2CCC(CO)CO)c(=O)[nH]1 [pencyclovir, 9-[4-hydroxy-3-(hydroxymethyl)butyl]guanine]
bioavailability [4]: 1.5%
water solubility ([8]; at 20° C.): 1740 µg/mL (≈ 6.87 mM)

CC(C)[C@H](N)C(=O)OCCOCn1cnc2c(=O)[nH]c(N)nc21 [valacyclovir, 2-(guanin-9-ylmethoxy)ethyl L-valine ether]
reduction of the infectious activity of the HSV-1 “L2/R” virus (HSV-1 “L2/R” virus): 1.5 log

Nc1ncnc2c1ncn2[C@@H]1O[C@H](CO)[C@@H](O)[C@@H]1O [vidarabine, 9-β-D-arabinofuranosyl adenine]
water solubility (in words) [8]: poorly soluble
